Read-outs that look alike come from different tables or passages of the source.
Assay: Plasma pharmacokinetics of emodepside, multiple ascending dose (MAD) study
Format: in vivo, human
Conditions: for AUC 0–24 /D / C max /D / AUC last /D / t ½ 0–24 (dominant half-life) / AUC 0–24 / Cmax: mean (CV%); for t ½ 0–24 (dominant half-life): Day 10, terminal slope of log concentration–time (0–24 hr) curve; for Cmax/Ctrough ratio: after the last dose on Day 10; for MRT: Day 1, mean (CV%); for AUC 0–24 / Cmax: HPLC-MS/MS; for CL/F: read-out: CL ss /F (converted); for Vd/F: read-out: V z /F; for half-life: read-out: Terminal t ½ (converted)
Description: Emodepside and placebo were supplied as a LSF and a standard immediate‐release (IR) tablet. The LSF was a 0.1% (w/v) solution containing 1 mg emodepside/mL. Conventional IR tablets containing emodepside in crystalline form were supplied in 2 dosage strengths, 5 and 20 mg, for the single ascending dose (SAD) study.
Blood samples (5 mL) were collected by venepuncture or via a cannula into EDTA tubes and immediately placed on ice. Samples were centrifuged at 1500 g for 10 minutes at 4°C. The plasma was aliquoted into 2 polypropylene tubes, which were stored at −20°C. Blood samples for PK analysis were taken at the following time points: • SAD: predose and 0.5, 1, 1.5, 2, 2.5, 3, 4, 5, 6, 8, 12, 24, 36, 48, 72, 96, 120, 144 and 168 hours, and 21 days postdose (cohort 1–9) or predose and 0.5, 1, 3, 6, 8, 12, 24, 36, 48, 72, 96, 120, 144 and 168 hours, and 10, 14, 18 and 21 days postdose (cohort 10). • Multiple ascending dose (MAD), as below: • on Day 1: predose and at 0.25, 0.5, 1, 1.5, 2, 2.5, 3, 4, 6, 8, 12 and 15 hours postdose • on Days 2–9: before the morning dose • on Day 10: before and at 0.25, 0.5, 1, 1.5, 2, 2.5, 3, 4, 6, 8, 12 and 15 hours • on Days 11, 12, 13, 14, 15, 18, 21, 24 and 30.
Emodepside plasma concentrations were determined by a validated high performance liquid chromatography–tandem mass spectrometry assay, using a Alltima C18 5 μm 150 mm x 2.1 mm column and an Applied Biosystems API4000 Turbo Ion Spray detector using positive ion mode. Analyst version 1.3.2 or 1.6.3 software, obtained from AB Sciex UK Ltd, Warrington, UK was used for chromatogram data analysis and quantitative calculations. Deuterated emodepside‐D16 was used as the internal standard. The lower limit of quantitation for emodepside in plasma was 1 ng/mL. Values below this limit were not used to calculate the PK parameters, except values that were below the limit of quantification before Cmax, which were set to zero.
The highest observed plasma concentration (Cmax) was determined directly from concentration–time data, as was the time to reach maximum plasma concentration (tmax). The area under the plasma concentration–time curve from time zero (predose) to the time of last quantifiable concentration (AUC0‐last) was calculated using the linear‐log trapezoidal rule. Elimination half‐life (t1/2) was calculated by the equation ln2/λz.
Statistical analyses were performed using SAS version 9.3 (Cary, NC, USA). Demographic data and baseline characteristics were listed and summarised. […] PK parameters were derived from plasma concentration vs. time data using a noncompartmental analysis in Phoenix WinNonlin version 7 (Certara Inc., Princeton, NJ, USA). Plasma concentration vs. time data and PK parameters were listed, and summarised by treatment, using descriptive statistics. Mean concentrations were calculated only if at least ⅔ of the individual concentrations were above the lower limit of quantification. […] Planned sampling times were used to summarise plasma‐concentration data; actual sampling times were used in the derivation of PK parameters.

[1] = 5 mg OD LSF fasting, Day 1, dose-normalised
[2] = 5 mg OD LSF fasting, Day 10, dose-normalised
[3] = 10 mg BID LSF fasting, Day 1, dose-normalised
[4] = 10 mg BID LSF fasting, Day 10, dose-normalised
[5] = 10 mg OD LSF fasting, Day 1, dose-normalised
[6] = 10 mg OD LSF fasting, Day 10, dose-normalised
[7] = human, plasma, po, 5 mg, 5 mg OD LSF fasting, Day 1, plasma
[8] = human, plasma, po, 5 mg, 5 mg OD LSF fasting, Day 10, mean (CV%)
[9] = human, plasma, po, 5 mg, 5 mg OD LSF fasting, Day 10, plasma
[10] = human, plasma, po, 10 mg, 10 mg BID LSF fasting, Day 1, plasma
[11] = human, plasma, po, 10 mg, 10 mg BID LSF fasting, Day 10, mean (CV%)
[12] = human, plasma, po, 10 mg, 10 mg BID LSF fasting, Day 10, plasma
[13] = human, plasma, po, 10 mg, 10 mg OD LSF fasting, Day 1, plasma
[14] = human, plasma, po, 10 mg, 10 mg OD LSF fasting, Day 10, mean (CV%)
[15] = human, plasma, po, 10 mg, 10 mg OD LSF fasting, Day 10, plasma

In the case of CC(C)C[C@H]1C(=O)O[C@H](Cc2ccc(N3CCOCC3)cc2)C(=O)N(C)[C@@H](CC(C)C)C(=O)O[C@H](C)C(=O)N(C)[C@@H](CC(C)C)C(=O)O[C@H](Cc2ccc(N3CCOCC3)cc2)C(=O)N(C)[C@@H](CC(C)C)C(=O)O[C@H](C)C(=O)N1C [emodepside], the “AUC 0–24 /D” value [1] is reported as 115 (19.7) [h.ng/mL]/mg, the “C max /D” value [1] is reported as 18.8 (17.8) [ng/mL]/mg and the Tmax (5 mg OD LSF fasting, Day 1, median (range)) is reported as 1.00 (1.00–1.07) h. For the same compound, the “AUC 0–24 /D” value [2] was 338 (31.3) [h.ng/mL]/mg, the “AUC last /D” value [2] was 3872 (29.9) [h.ng/mL]/mg and the “C max /D” value [2] was 29.9 (17.9) [ng/mL]/mg. The λ z (5 mg OD LSF fasting, Day 10, mean (CV%)) was 0.00166 (42.6) 1/h, the “Terminal t ½” value (5 mg OD LSF fasting, Day 10, mean (CV%), geometric mean) was 419 (42.6) h and the Tmax (5 mg OD LSF fasting, Day 10, median (range)) was 1.00 (1.00–1.50) h. For the same compound, the “t ½ 0–24 (dominant half-life)” value (5 mg OD LSF fasting) was 26.9 (52.4) h, the “AUC 0–24 /D” value [3] was 71.4 (26.5) [h.ng/mL]/mg and the “C max /D” value [3] was 16.0 (20.4) [ng/mL]/mg. For the same compound, the Tmax (10 mg BID LSF fasting, Day 1, median (range)) was 1.00 (1.00–1.58) h, the “AUC 0–24 /D” value [4] was 490 (35.8) [h.ng/mL]/mg and the “AUC last /D” value [4] was 5955 (29.1) [h.ng/mL]/mg. The “C max /D” value [4] was 34.9 (27.1) [ng/mL]/mg, the λ z (10 mg BID LSF fasting, Day 10, mean (CV%)) was 0.00137 (56.9) 1/h and the “t ½ 0–24 (dominant half-life)” value (10 mg BID LSF fasting) was 33.2 (55.0) h. The Cmax/Ctrough ratio (10 mg BID LSF) was 1.9, the “AUC 0–24 /D” value [5] was 113 (32.7) [h.ng/mL]/mg and the “C max /D” value [5] was 18.6 (21.3) [ng/mL]/mg. The “AUC 0–24 /D” value [6] was 349 (44.2) [h.ng/mL]/mg, the “AUC last /D” value [6] was 4065 (43.5) [h.ng/mL]/mg and the “C max /D” value [6] was 28.7 (39.7) [ng/mL]/mg. The λ z (10 mg OD LSF fasting, Day 10, mean (CV%)) was 0.00154 (30.6) 1/h, the Tmax (10 mg OD LSF fasting, Day 10, median (range)) was 1.25 (1.00–2.00) h and the “t ½ 0–24 (dominant half-life)” value (10 mg OD LSF fasting) was 18.4 (30.0) h. For the same compound, the Cmax/Ctrough ratio (10 mg OD LSF) was 3.0, the “Emodepside levels at the final sampling timepoint” value (507 hours after the last morning dose, LLOQ 1 ng/mL) was “still quantifiable in all subjects” and the “Geometric mean Cmax on Day 10, 10 mg BID group vs 10 mg OD group” value (LSF) was 1.2 fold. It also gave an MRT (human, plasma, po, 5 mg, 5 mg OD LSF fasting) of 7.28 h, an AUC 0–24 [7] of 574 ng·h/mL and a Cmax [7] of 93.8 ng/mL. For the same compound, the CL/F [8] was 49.3 mL/min, the Vd/F [8] was 1790 L and the AUC 0–24 [9] was 1690 ng·h/mL. It also gave a Cmax [9] of 149 ng/mL, an MRT (human, plasma, po, 10 mg, 10 mg BID LSF fasting) of 10.8 h and an AUC 0–24 [10] of 1430 ng·h/mL. It also gave a Cmax [10] of 160 ng/mL, a half-life (human, plasma, po, 10 mg, 10 mg BID LSF fasting, Day 10, mean (CV%), geometric mean) of 21.2 days and a CL/F [11] of 59.3 mL/min. For the same compound, the Vd/F [11] was 2610 L, the Tmax (human, plasma, po, 10 mg, 10 mg BID LSF fasting, Day 10, median (range), read-out: t max) was 1.5 h and the AUC 0–24 [12] was 4900 ng·h/mL. It also gave a Cmax [12] of 349 ng/mL, an MRT (human, plasma, po, 10 mg, 10 mg OD LSF fasting) of 7 h and a Tmax (human, plasma, po, 10 mg, 10 mg OD LSF fasting, Day 1, median (range), read-out: t max) of 1.25 h. It also gave an AUC 0–24 [13] of 1140 ng·h/mL, a Cmax [13] of 186 ng/mL and a half-life (human, plasma, po, 10 mg, 10 mg OD LSF fasting, Day 10, mean (CV%), geometric mean) of 18.8 days. For the same compound, the CL/F [14] was 47.8 mL/min, the Vd/F [14] was 1860 L and the AUC 0–24 [15] was 3490 ng·h/mL. For the same compound, the Cmax [15] was 287 ng/mL.

Source: PMC8518114, “Safety, tolerability and pharmacokinetics of emodepside, a potential novel treatment for onchocerciasis (river blindness), in healthy male subjects” (British Journal of Clinical Pharmacology, 2021)
